The values below come from US7691889B2, “Antimycobacterial compounds” (Lupin Limited, priority 2002, dated 2010).

Values after ≈ are worked out from the molar mass of the structure shown.

The subject of one assay is M. tuberculosis 27294. The experiment in a line: In vitro agar dilution assay (MIC), reference strain. It is filed as cell-based, Mycobacterium tuberculosis. As to conditions: Middlebrook 7H10. In general terms: In agar dilution the substance is mixed into plates at graded concentrations.
In assay [1] the test system is M. tuberculosis clinical isolates, sensitive. Briefly: microbe, parasite or virus in culture. As to conditions: Table I; agar dilution. Format: cell-based, Mycobacterium tuberculosis.

On to `O=C(CCC(=O)c1ccc(F)cc1F)NC[C@H]1CN(c2ccc(N3CCOCC3)c(F)c2)C(=O)O1` [Compound 18, (S)-N-[[3-(3-fluoro-4-morpholinylphenyl)-2-oxo-5-oxazolidinyl]methyl]-4-(2,4-difluorophenyl)-4-oxobutanamide], for which the “MIC against M. tuberculosis 27294” value in the assay with M. tuberculosis 27294 was 4− μg/ml. Besides, the “MIC against Clinical isolates Sensitive” value in assay [1] fell in the range of 1 to 4 µg/mL.

In the case of `O=C(CCC(=O)c1cccs1)NC[C@H]1CN(c2ccc(N3CCOCC3)c(F)c2)C(=O)O1` [Compound 19, (S)-N-[[3-(3-fluoro-4-morpholinylphenyl)-2-oxo-5-oxazolidinyl]methyl]-4-oxo-4-(2-thienyl)butanamide], the “MIC against M. tuberculosis 27294” value against M. tuberculosis 27294 came to 2 µg/mL (≈ 4.33 µM). For the same compound, in assay [1], the “MIC against Clinical isolates Sensitive” value lay within 1 to 2 µg/mL.

Take `CSc1ccc(C(=O)CCC(=O)NC[C@H]2CN(c3ccc(N4CCOCC4)c(F)c3)C(=O)O2)cc1` [Compound 21, (S)-N-[[3-(3-fluoro-4-morpholinylphenyl)-2-oxo-5-oxazolidinyl]methyl]-4-oxo-4-(4-thiomethyl)phenylbutanamide]: the “MIC against M. tuberculosis 27294” value against M. tuberculosis 27294 came out at 0.5 µg/mL (≈ 0.997 µM). In assay [1], the “MIC against Clinical isolates Sensitive” value was 0.5 to 2 µg/mL.

As to `Cc1ccc(C(=O)CCC(=O)NC[C@H]2CN(c3ccc(N4CCOCC4)c(F)c3)C(=O)O2)c(C)c1` [Compound 25, (S)-N-[[3-(3-fluoro-4-morpholinylphenyl)-2-oxo-5-oxazolidinyl]methyl]-4-(2,4-dimethylphenyl)-4-oxobutanamide], the “MIC against M. tuberculosis 27294” value with M. tuberculosis 27294 came out at 4 µg/mL (≈ 8.27 µM). Further, in assay [1], the “MIC against Clinical isolates Sensitive” value is 4 to 16 µg/mL.

As to `Cc1ccc(C(=O)CCC(=O)NC[C@H]2CN(c3ccc(-n4nnc5ccccc54)c(F)c3)C(=O)O2)c(C)c1` [Compound 27, (S)-N-[[3-(3-fluoro-4-benzotriazolylphenyl)-2-oxo-5-oxazolidinyl]methyl]-4-(2,4-dimethylphenyl)-4-oxobutanamide], the “MIC against M. tuberculosis 27294” value against M. tuberculosis 27294 was >16 µg/mL. The “MIC against Clinical isolates Sensitive” value in assay [1] was >16 µg/mL.

In the case of `O=C(CCC(=O)c1cccs1)NC[C@H]1CN(c2ccc(N3CCCC3)c(F)c2)C(=O)O1` [Compound 28, (S)-N-[[3-(3-fluoro-4-pyrrolidinylphenyl)-2-oxo-5-oxazolidinyl]methyl]-4-oxo-4-(2-thienyl)butanamide], the “MIC against M. tuberculosis 27294” value in the assay with M. tuberculosis 27294 is 0.5 µg/mL (≈ 1.12 µM). Also, the “MIC against Clinical isolates Sensitive” value in assay [1] lay within 1 to 2 µg/mL.

Regarding `O=C(CCC(=O)c1cccs1)NC[C@H]1CN(c2ccc([N+]3([O-])CCOCC3)c(F)c2)C(=O)O1` [Compound 31, (S)-N-[[3-(3-fluoro-4-morpholinylphenyl)-2-oxo-5-oxazolidinyl]methyl]-4-oxo-4-(2-thienyl)butanamide-N-oxide], in the assay on M. tuberculosis 27294, the “MIC against M. tuberculosis 27294” value came out at 1 µg/mL (≈ 2.09 µM). For the same compound, the “MIC against Clinical isolates Sensitive” value in assay [1] fell in the range of 1 to 2 µg/mL.

As to `O=C(CCC(=O)c1ccc(Cl)cc1)NC[C@H]1CN(c2ccc([N+]3([O-])CCOCC3)c(F)c2)C(=O)O1` [Compound 32, (S)-N-[[3-(3-fluoro-4-morpholinylphenyl)-2-oxo-5-oxazolidinyl]methyl]-4-(4-chlorophenyl)-4-oxobutanamide-N-oxide], in the assay on M. tuberculosis 27294, the “MIC against M. tuberculosis 27294” value was determined as 0.25 µg/mL (≈ 0.494 µM). For the same compound, in assay [1], the “MIC against Clinical isolates Sensitive” value was in the range of 0.25 to 0.5 µg/mL.

Consider `CC(C)Cc1ccc(C(=O)CCC(=O)NC[C@H]2CN(c3ccc([N+]4([O-])CCOCC4)c(F)c3)C(=O)O2)cc1` [Compound 33], for which, in the assay with M. tuberculosis 27294, the “MIC against M. tuberculosis 27294” value stood at 0.5 µg/mL (≈ 0.948 µM). Moreover, in assay [1], the “MIC against Clinical isolates Sensitive” value was determined as 1 µg/mL (≈ 1.9 µM).

Turning to `O=C(C=CC(=O)c1ccccc1)NC[C@H]1CN(c2ccc(N3CCOCC3)c(F)c2)C(=O)O1` [Compound 34, (S)-N-[[3-(3-fluoro-4-morpholinylphenyl)-2-oxo-5-oxazolidinyl]methyl]-4-oxo-4-phenylbut-2-enamide], the “MIC against M. tuberculosis 27294” value against M. tuberculosis 27294 is >16 µg/mL. Further, the “MIC against Clinical isolates Sensitive” value in assay [1] was >16 µg/mL.
